Laboratory results published in patent US12661410B2, “Compounds for targeted degradation of RET” (C4 Therapeutics, Inc., priority 2020, dated 2026).
Residue numbers refer to the chain shown, from its start. Like-named read-outs stand apart in the source and are kept apart here.

Legend:
RET(KD: 658-1114 G810R) = target: T1, RET(KD: 658-1114 G810R) (Homo sapiens, UniProt P07949, G810R); assay: HiBiT-Degradation, RET G810R degradation assay (Nano-Glo HiBiT Lytic), 293T.165 cells; type: cell-based; settings: for Emax / DC50: 6.0 hours
T1 construct: 658-1114; expressed in transfected cells; host or cells: 293T.165 (293T cells, generated in-house)
T1 sequence (P07949 658-1114 G810R): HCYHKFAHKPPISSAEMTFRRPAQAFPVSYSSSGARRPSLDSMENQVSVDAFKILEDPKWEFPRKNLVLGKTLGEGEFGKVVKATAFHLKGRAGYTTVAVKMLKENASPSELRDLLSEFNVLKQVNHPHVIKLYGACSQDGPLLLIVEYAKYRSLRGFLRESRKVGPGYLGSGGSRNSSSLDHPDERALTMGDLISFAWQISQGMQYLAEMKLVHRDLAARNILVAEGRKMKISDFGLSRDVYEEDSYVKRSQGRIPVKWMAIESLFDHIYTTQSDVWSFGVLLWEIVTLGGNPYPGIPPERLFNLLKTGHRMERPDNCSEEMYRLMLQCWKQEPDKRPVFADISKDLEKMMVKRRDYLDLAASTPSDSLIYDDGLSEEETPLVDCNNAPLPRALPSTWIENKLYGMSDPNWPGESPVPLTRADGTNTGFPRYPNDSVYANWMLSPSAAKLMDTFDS
Outline: (§1)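 HEK293T lines stably expressing HiBiT-tagged RET kinase domain (WT: 293T.144; G810R: 293T.165) were treated with degraders for 6 h in duplicate, 11-point half-log series from 10 μM top dose. Lysis with Nano-Glo HiBiT Lytic reagent, luminescence read; DC50 and Emax (% remaining protein) derived from dose-response curves.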

RET (658-1114) = target: T2, RET (658-1114) (Homo sapiens, UniProt P07949); assay: HiBiT-Degradation, RET wild-type degradation assay (Nano-Glo HiBiT Lytic), 293T.144 cells; type: cell-based; settings: for Emax / DC50: 6.0 hours
T2 construct: 658-1114; expressed in transfected cells; host or cells: 293T.144 (293T cells, generated in-house)
T2 sequence (P07949 658-1114): T1 sequence (P07949 658-1114 G810R) with R153G
Outline: as §1

[1] = % remaining protein, read-out: 293T.165 RET(KD: 658-1114 G810R) 6.0 hours (Emax)
[2] = half-maximal degradation concentration, read-out: 293T.165 RET(KD: 658-1114 G810R) 6.0 hours (DC50)
[3] = % remaining protein, read-out: 293T.144 RET (658-1114) 6.0 hours (Emax)
[4] = half-maximal degradation concentration, read-out: 293T.144 RET (658-1114) 6.0 hours (DC50)
[5] = RET G810R, read-out: HiBiT-Degradation 293T.165 RET(KD: 658-1114 G810R) 6.0 hours (DC50)
[6] = RET G810R, read-out: HiBiT-Degradation 293T.165 RET(KD: 658-1114 G810R) 6.0 hours (Emax)
[7] = RET wild-type, read-out: HiBiT-Degradation 293T.144 RET (658-1114) 6.0 hours (DC50)
[8] = RET wild-type, read-out: HiBiT-Degradation 293T.144 RET (658-1114) 6.0 hours (Emax)

SMILES | 293T.165 RET(KD: 658-1114 G810R) 6.0 hours (IP) [nM] (RET(KD: 658-1114 G810R)) | Emax (RET(KD: 658-1114 G810R); [1]) [%] | DC50 (RET(KD: 658-1114 G810R); [2]) [nM] | 293T.144 RET (658-1114) 6.0 hours (IP) [nM] (RET (658-1114)) | Emax (RET (658-1114); [3]) [%] | DC50 (RET (658-1114); [4]) [nM] | HiBiT-Degradation 293T.165 RET(KD: 658-1114 G810R) 6.0 hours (IP) [nM] (RET(KD: 658-1114 G810R); RET G810R) | DC50 (RET(KD: 658-1114 G810R); [5]) [nM] | Emax (RET(KD: 658-1114 G810R); [6]) [%] | HiBiT-Degradation 293T.144 RET (658-1114) 6.0 hours (IP) [nM] (RET (658-1114); RET wild-type) | DC50 (RET (658-1114); [7]) [nM] | Emax (RET (658-1114); [8]) [%] | 293T.165 RET(KD: 658-1114 G810R) 6.0 hours (Emax) (RET(KD: 658-1114 G810R); HiBiT-Degradation) | 293T.165 RET(KD: 658-1114 G810R) 6.0 hours (IP) [nM] (RET(KD: 658-1114 G810R); HiBiT-Degradation) | DC50 (RET(KD: 658-1114 G810R); HiBiT-Degradation, read-out: 293T.165 RET(KD: 658-1114 G810R) 6.0 hours (DC50)) [nM] | 293T.144 RET (658-1114) 6.0 hours (IP) [nM] (RET (658-1114); HiBiT-Degradation) | DC50 (RET (658-1114); HiBiT-Degradation, read-out: 293T.144 RET (658-1114) 6.0 hours (DC50)) [nM] | Emax (RET (658-1114); HiBiT-Degradation, read-out: 293T.144 RET (658-1114) 6.0 hours (Emax)) [%]
CCC1(C(=O)NC2CCC2)CCN(c2ccc(-c3nc(-c4cnn(C5CCN([C@H]6CCN(c7ccc(N[C@H]8CCC(=O)NC8=O)cc7F)CC6(F)F)CC5)c4)cn4ncc(C#N)c34)cn2)CC1 (single isomer, unassigned) [Compound 191] | +++ (<100 nM = +++) | < 30 | < 100 | ++++ (<50 nM = ++++) | < 30 | < 50 |  |  |  |  |  |  |  |  |  |  |  | 
N#Cc1cnn2cc(-c3cnn(C4CCC(N5CCN(c6ccc(NC7CCC(=O)NC7=O)cc6F)CC5)CC4)c3)nc(-c3ccc(N4C[C@H]5COC[C@@H](C4)N5CC4CCC(F)(F)CC4)nc3)c12 (single isomer, unassigned) [Compound 150] | ++++ (<50 nM = ++++) | < 30 |  | ++++ (<50 nM = ++++) | < 30 | < 50 |  |  |  |  |  |  |  |  |  |  |  | 
CCC1(C(=O)NC2CCC2)CCN(c2ccc(-c3nc(-c4cnn([C@H]5CC[C@H](CN6CCN(c7ccc(N[C@@H]8CCC(=O)NC8=O)cc7F)CC6)CC5)c4)cn4ncc(C#N)c34)cn2)CC1 [Compound 190, 1-[5-[3-cyano-6-[1-[4-[[4-[4-[[(3R)-2,6-dioxo-3-piperidyl]amino]-2-fluoro-phenyl]piperazin-1-yl]methyl]cyclohexyl]pyrazol-4-yl]pyrazolo[1,5-a]pyrazin-4-yl]-2-pyridyl]-N-cyclobutyl-4-ethyl-piperidine-4-carboxamide] | ++++ (<50 nM = ++++) | < 30 | < 100 | ++++ (<50 nM = ++++) | < 30 | < 50 |  |  |  |  |  |  |  |  |  |  |  | 
COc1ccc(CC2(OC)CCN(c3ccc(-c4nc(-c5cnn([C@H]6CC[C@@H](N7CCN(c8ccc(NC9CCC(=O)NC9=O)cc8F)CC7)CC6)c5)cn5ncc(C#N)c45)cn3)CC2)cn1 (single isomer, unassigned) [Compound 147, 6-(1-((1s, 4s)-4-(4-(4-((2,6-Dioxopiperidin-3-yl)amino)-2-fluorophenyl)piperazin-1-yl)cyclohexyl)-1H-pyrazol-4-yl)-4-(6-(4-methoxy-4-((6-methoxypyridin-3-yl)methyl)piperidin-1-yl)pyridin-3-yl)pyrazolo[1,5-a]pyrazine-3-carbonitrile] | ++++ (<50 nM = ++++) | < 30 | < 100 | ++++ (<50 nM = ++++) | < 30 | < 50 |  |  |  |  |  |  |  |  |  |  |  | 
Cc1ccnc(C2CCN(c3ccc(-c4nc(-c5cnn(C6CCN(C(=O)CC7(O)CCN(c8ccc(NC9CCC(=O)NC9=O)cc8F)CC7)CC6)c5)cn5ncc(C#N)c45)cn3)CC2)n1 (stereo not shown) [Compound 115, 6-[1-[1-[2-[1-[4-[(2,6-dioxo-3-piperidyl)amino]-2-fluoro-phenyl]-4-hydroxy-4-piperidyl]acetyl]-4-piperidyl]pyrazol-4-yl]-4-[6-[4-(4-methylpyrimidin-2-yl)-1-piperidyl]-3-pyridyl]pyrazolo[1,5-a]pyrazine-3-carbonitrile] | ++++ (<50 nM = ++++) | < 30 | < 50 | ++++ (<50 nM = ++++) | < 30 | < 50 |  |  |  |  |  |  |  |  |  |  |  | 
CCC1(C(=O)NC(C)C)CCN(c2ccc(-c3cc(-c4cnn([C@H]5CC[C@@H](N6CCC(c7ccc(NC8CCC(=O)NC8=O)cc7F)CC6)CC5)c4)cn4ncc(C#N)c34)cn2)CC1 (stereo partly shown) [Compound 88, 1-(5-(3-cyano-6-(1-((1s, 4s)-4-(4-(4-((2,6-dioxopiperidin-3-yl)amino)-2-fluorophenyl)piperidin-1-yl)cyclohexyl)-1H-pyrazol-4-yl)pyrazolo[1,5-a]pyridin-4-yl)pyridin-2-yl)-4-ethyl-N-isopropylpiperidine-4-carboxamide] |  | < 50 | < 1000 |  |  |  | ++++ (< 50 nM = ++++) | < 1000 | < 50 | ++++ (< 50 nM = ++++) | < 50 | < 30 |  |  |  |  |  | 
N#Cc1cnn2cc(-c3cnn([C@H]4CC[C@H](CCN5CCC(c6ccc(NC7CCC(=O)NC7=O)cc6F)CC5)CC4)c3)nc(-c3ccc(N4CCN(C(=O)Cc5ccc(F)cn5)CC4)nc3)c12 (stereo partly shown) [Compound 60, 6-[1-[(1r,4r)-4-[2-[4-[4-[(2,6-dioxo-3-piperidyl)amino]-2-fluoro-phenyl]-1-piperidyl]ethyl]cyclohexyl]pyrazol-4-yl]-4-[6-[4-[2-(5-fluoro-2-pyridyl)acetyl]piperazin-1-yl]-3-pyridyl]pyrazolo[1,5-a]pyrazine-3-carbonitrile] |  | < 30 | < 50 |  |  |  |  |  |  |  |  |  | ++++ (< 30% = ++++) | ++++ (< 50 nM = ++++) | < 50 | ++++ (< 50 nM = ++++) | < 50 | < 30
CC(C)NC(=O)C1(C)CCN(c2ccc(-c3cc(-c4cnn(CCCCCCN5CCC(c6ccc7c(N8CCC(=O)NC8=O)nn(C)c7c6)CC5)c4)cn4ncc(C#N)c34)cn2)CC1 [Compound 82, 1-[5-[3-cyano-6-[1-[6-[4-[3-(2,4-dioxohexahydropyrimidin-1-yl)-1-methyl-indazol-6-yl]-1-piperidyl]hexyl]pyrazol-4-yl]pyrazolo[1,5-a]pyridin-4-yl]-2-pyridyl]-N-isopropyl-4-methyl-piperidine-4-carboxamide] |  | < 30 | < 100 |  |  |  | ++++ (< 50 nM = ++++) | < 100 | < 30 | ++++ (< 50 nM = ++++) | < 50 | < 30 |  |  |  |  |  | 
COCC1(Cc2ccccn2)CCN(c2ccc(-c3nc(-c4cnn(C5CCN(C(=O)CN6CCC(c7ccc(NC8CCC(=O)NC8=O)cc7F)CC6)CC5)c4)cn4ncc(C#N)c34)cn2)CC1 (stereo not shown) [Compound 78, 6-[1-[1-[2-[4-[4-[(2,6-dioxo-3-piperidyl)amino]-2-fluoro-phenyl]-1-piperidyl]acetyl]-4-piperidyl]pyrazol-4-yl]-4-[6-[4-(methoxymethyl)-4-(2-pyridylmethyl)-1-piperidyl]-3-pyridyl]pyrazolo[1,5-a]pyrazine-3-carbonitrile] |  | < 30 | < 100 |  |  |  | ++++ (< 50 nM = ++++) | < 100 | < 30 | ++++ (< 50 nM = ++++) | < 50 | < 30 |  |  |  |  |  | 
COc1cc(N2CCN([C@H]3CC[C@H](n4cc(-c5cn6ncc(C#N)c6c(-c6ccc(N7C[C@@H]8C[C@@](C)(NC(=O)c9ncccc9Cl)C[C@@H]8C7)nc6)n5)cn4)CC3)CC2)c(F)cc1NC1CCC(=O)NC1=O (stereo partly drawn) [Compound 209, N-[(3aR,6aS)-2-[5-[3-cyano-6-[1-[4-[4-[4-[(2,6-dioxo-3-piperidyl)amino]-2-fluoro-5-methoxy-phenyl]piperazin-1-yl]cyclohexyl]pyrazol-4-yl]pyrazolo[1,5-a]pyrazin-4-yl]-2-pyridyl]-5-methyl-1,3,3a, 4,6,6a-hexahydrocyclopenta[c]pyrrol-5-yl]-3-chloro-pyridine-2-carboxamide] | ++++ (<50 nM = ++++) | < 30 | < 100 | ++++ (<50 nM = ++++) | < 30 | < 50 |  |  |  |  |  |  |  |  |  |  |  | 
